One data set relates to HEI-OC1 cell line. The experiment in a line: Caspase-Glo 3/7 activity screen for protection from cisplatin-induced cell death. In kind it is cell-based, mouse. Conditions: Mus musculus; HEI-OC1, 50 μM cisplatin, 22 hours. The procedure:
An unbiased screen for compounds protective against cisplatin ototoxicity ([12], [13]) was conducted using the immortalized inner ear cell line HEI-OC1 derived from mouse cochlea ([14]). One hundred sixty-two unique small-molecule kinase-specific inhibitors were screened in dose-response mode for protection from 50 μM cisplatin. A caspase-3/7 activity assay was selected to measure apoptosis using a protocol that quantifies a luminescent product derived from the cleavage of caspase-3/7 substrate (Caspase-Glo 3/7 reagent). One hundred percent luminescence was defined by cells treated with cisplatin alone, and 0% was defined by untreated cells (Fig. 1A, fig. S1, table S1, and dataset in the Supplementary Materials).
In these screens, caspase-3 cleavage was chosen as the end point indicating cisplatin-induced apoptosis, because it allowed the inhibition of cell death to be monitored at the level of any molecular target upstream of caspase-3 cleavage in the HEI-OC1 cell line. Cells were plated at a previously optimized concentration of 1600 cells per well in medium without γ-interferon to limit proliferation and tested against 50 μM cisplatin based on a previous dose–response curve. Tested compounds were dissolved in DMSO before addition to medium with a final DMSO concentration of <0.5%. The screens are described in detail in our previous publications ([12], [13]). […]

Another data set relates to HEI-OC1 cells. As to the kind of experiment: Cell Titer-Glo cell viability assay, compound alone. In kind it is cell-based. Particulars: all concentrations tested. The text has this:
All compounds were further characterized via Cell Titer-Glo cell viability assay to determine toxicity of the compound alone in HEI-OC1 cells (table S1 and dataset in the Supplementary Materials). […] The other BRAF inhibitors had similar IC50 in the micromolar range and were nontoxic to cells (table S1).
In these screens, caspase-3 cleavage was chosen as the end point indicating cisplatin-induced apoptosis, because it allowed the inhibition of cell death to be monitored at the level of any molecular target upstream of caspase-3 cleavage in the HEI-OC1 cell line. Cells were plated at a previously optimized concentration of 1600 cells per well in medium without γ-interferon to limit proliferation and tested against 50 μM cisplatin based on a previous dose–response curve. Tested compounds were dissolved in DMSO before addition to medium with a final DMSO concentration of <0.5%. The screens are described in detail in our previous publications ([12], [13]). […] Pifithrin-α was added to each plate as a screening quality control. The linearity of the Caspase-Glo 3/7 (Promega) assay, which enables the measurement of light emitted as a result of caspase-3/7 cleavage and is suitable for HTS, was validated, and it was verified that 0.5% DMSO had no effect on the cell death kinetics. Compounds were screened in triplicate at final concentrations ranging from 1 nM to 85 μM and incubated for 22 hours. […]

A further data set relates to IMR-32. As to the kind of experiment: Tumor Cell Titer-Glo viability assay, IMR-32. In kind it is cell-based, human. Particulars: IMR-32, 35 μM + 15 μM cisplatin, 48 hours. From the text: In clinical settings, cisplatin is used to treat several tumor types, including neuroblastoma and lung carcinoma. […] Medium-alone–, cisplatin-alone–, and dabrafenib-alone–treated cells were used as controls, and viability was reported as percent survival compared to medium alone (Fig. 4E).
Three human neuroblastoma cell lines IMR-32, SH-SY5Y, and, SK-N-AS, as well as three human lung carcinoma cell lines SHP-77 small cell, H1155 non–small cell, and A549 non–small cell, were used to determine the compounds’ effect on cisplatin’s tumor-killing efficacy ([77]–[83]). Cell lines were purchased from the American Type Culture Collection (ATCC), and cell culture was conducted according to ATCC specifications. Neuroblastoma cell lines IMR-32 and SH-SY5Y are maintained in Dulbecco’s modified Eagle’s medium (DMEM) 1× with glucose (4.5 g/liter), L-glutamine, and sodium pyruvate (10-013-CV, Corning) with 10% fetal bovine serum (FBS) (35011132, Corning) and ampicillin (50 μg/ml; A5354-10ML, Sigma-Aldrich) added. The SK-N-AS cell line is maintained in DMEM 1× with D-glucose (4.5 g/liter), L-glutamine, and 25 mM Hepes (12430-054, Gibco) with 10% FBS, 0.1 mM nonessential amino acids, and ampicillin (50 μg/ml) added. A549 cells are maintained in F-12K medium with L-glutamine (30-2004, ATCC) with 10% FBS and ampicillin (50 μg/ml) added. […]

Consider one compound from article PMC7821884, “BRAF inhibition protects against hearing loss in mice” (Science Advances, 2020).

The compound `CC(C)(C)c1nc(-c2cccc(NS(=O)(=O)c3c(F)cccc3F)c2F)c(-c2ccnc(N)n2)s1` [dabrafenib] registered an IC50 with HEI-OC1 cell line of 13.5 µM. Also, in the data set with HEI-OC1 cells, the “toxicity of the compound alone, cell viability assay” value is reported as “nontoxic”. Besides, the “effect on tumor cell death when combined with cisplatin” value with IMR-32 is “increased tumor cell death”.
